In patent US5514814A, “Pyrrolinone-based compounds” (Trustees of the University of Pennsylvania, priority 1994, dated 1996):

Assays:
Format in all cases: biochemical
[1] = target: T1, HIV-1 protease (Human immunodeficiency virus type 1 group M subtype B, UniProt P12497); experiment: Inhibition of purified HIV-1 protease (IC50); conditions: HIV-1 protease purified generally according to Heimbach, et al.
T1 construct: HIV-1 protease purified generally according to Heimbach; made in house
Description: The extent to which the compounds of the invention for inhibit and prevent the spread of HIV-1 protease was determined generally according to the methods disclosed by Thompson, et al., J. Med. Chem. 1992, 35, 1685. IC50 and CIC95 values were determined using HIV-1 protease purified generally according to Heimbach, et al., Biochem. Biophys. Res. Commun. 1989, 164, 955.

[2] = target: HIV1 (Human immunodeficiency virus type 1 (NEW YORK-5 ISOLATE), UniProt P12497); experiment: Effective HIV1 inhibitor at stated concentration
[3] = system: renin; experiment: Effective renin inhibitor at stated concentration

COC(=O)[C@H](Cc1ccccc1)C1=CN[C@@](CC(C)C)(C2=CN[C@@](Cc3ccccc3)(C[C@H](O)[C@H](Cc3ccccc3)NC(=O)O[C@H]3CCOC3)C2=O)C1=O [(58)]
IC50 [1]: 2 nM

COC(=O)[C@H](Cc1ccccc1)C1=CN[C@@](CC(C)C)(C2=CN[C@@](Cc3ccccc3)(C[C@H](O)[C@H](Cc3ccccc3)NC(=O)OC(C)(C)C)C2=O)C1=O [(59)]
IC50 [1]: 37 nM

CC(C)C[C@@]1(C2=CN[C@@](Cc3ccccc3)(C[C@H](O)[C@H](Cc3ccccc3)NC(=O)OC(C)(C)C)C2=O)NC=C([C@@H](Cc2ccccc2)C(=O)NC(C)(C)C)C1=O [(54)]
IC50 [1]: 48 nM

O=C(N[C@@H](Cc1ccccc1)[C@@H](O)C[C@]1(Cc2ccccc2)NC=C([C@H]2c3ccccc3C[C@H]2O)C1=O)O[C@H]1CCOC1 [(67)]
IC50 [1]: 2 nM

CC(C)(C)OC(=O)N[C@@H](Cc1ccccc1)[C@@H](O)C[C@]1(Cc2ccccc2)NC=C([C@H]2c3ccccc3C[C@H]2O)C1=O [(68)]
IC50 [1]: 11.9 nM

CC(C)C[C@@]1(C2=CN[C@@](Cc3ccccc3)(C[C@H](O)[C@H](Cc3ccccc3)NC(=O)O[C@H]3CCOC3)C2=O)NC=C([C@@H](Cc2ccccc2)C(N)=O)C1=O [(49)]
IC50 [1]: 1.3 nM

CC(C)=CCC1(Cc2ccccc2)NC=C(C2(CC(C)C)NC=C(C(CC3CCCCC3)C(O)C(O)CC(C)C)C2=O)C1=O (stereo not shown) [Structure (9a)]
found to act as effective HIV1 inhibitor at (concentration) [2]: 3.5 µM

CC(C)=CCC1(Cc2ccccc2)NC=C(C(CC(C)C)C(=O)NC(CC2CCCCC2)C(O)C(O)CC(C)C)C1=O [Structure (10a), 5(S)-prenyl-(5-benzyl)pyrrolin-4-one-3!-2(R)-isobutylacetate-1-amino-1(S)-cyclohexylmethyl-2(R)3 3 (S)-dihydroxy-5-methylhexane!-amide]
found to act as an effective renin inhibitor at (concentration) [3]: 700 nM

CC(C)C[C@@]1(C2=CN[C@@](Cc3ccccc3)(C[C@H](O)[C@H](Cc3ccccc3)NC(=O)O[C@H]3CCOC3)C2=O)NC=C([C@@H](Cc2ccccc2)C(=O)NC(C)(C)C)C1=O [(53)]
IC50 [1]: 3.3 nM

CC(C)CC1(C2=CNC(Cc3ccccc3)(CC(O)C(Cc3ccccc3)NC(=O)OC(C)(C)C)C2=O)NC=C(C(Cc2ccccc2)C(N)=O)C1=O (stereo not shown) [(11)]
IC50 [1]: 10 nM
